Drawing on ChEMBL document CHEMBL3991601, “The target landscape of clinical kinase drugs” (Science, 2017), this text covers Kd for 15 compounds.

Calls of active or inactive are those of the source.

Assay [1] has as its target Cyclin-dependent kinase 5 (Homo sapiens, UniProt Q00535).
Assay [2] concerns the target T1, Cyclin-G-associated kinase (Homo sapiens, UniProt O14976).
T1 sequence (O14976 whole entry): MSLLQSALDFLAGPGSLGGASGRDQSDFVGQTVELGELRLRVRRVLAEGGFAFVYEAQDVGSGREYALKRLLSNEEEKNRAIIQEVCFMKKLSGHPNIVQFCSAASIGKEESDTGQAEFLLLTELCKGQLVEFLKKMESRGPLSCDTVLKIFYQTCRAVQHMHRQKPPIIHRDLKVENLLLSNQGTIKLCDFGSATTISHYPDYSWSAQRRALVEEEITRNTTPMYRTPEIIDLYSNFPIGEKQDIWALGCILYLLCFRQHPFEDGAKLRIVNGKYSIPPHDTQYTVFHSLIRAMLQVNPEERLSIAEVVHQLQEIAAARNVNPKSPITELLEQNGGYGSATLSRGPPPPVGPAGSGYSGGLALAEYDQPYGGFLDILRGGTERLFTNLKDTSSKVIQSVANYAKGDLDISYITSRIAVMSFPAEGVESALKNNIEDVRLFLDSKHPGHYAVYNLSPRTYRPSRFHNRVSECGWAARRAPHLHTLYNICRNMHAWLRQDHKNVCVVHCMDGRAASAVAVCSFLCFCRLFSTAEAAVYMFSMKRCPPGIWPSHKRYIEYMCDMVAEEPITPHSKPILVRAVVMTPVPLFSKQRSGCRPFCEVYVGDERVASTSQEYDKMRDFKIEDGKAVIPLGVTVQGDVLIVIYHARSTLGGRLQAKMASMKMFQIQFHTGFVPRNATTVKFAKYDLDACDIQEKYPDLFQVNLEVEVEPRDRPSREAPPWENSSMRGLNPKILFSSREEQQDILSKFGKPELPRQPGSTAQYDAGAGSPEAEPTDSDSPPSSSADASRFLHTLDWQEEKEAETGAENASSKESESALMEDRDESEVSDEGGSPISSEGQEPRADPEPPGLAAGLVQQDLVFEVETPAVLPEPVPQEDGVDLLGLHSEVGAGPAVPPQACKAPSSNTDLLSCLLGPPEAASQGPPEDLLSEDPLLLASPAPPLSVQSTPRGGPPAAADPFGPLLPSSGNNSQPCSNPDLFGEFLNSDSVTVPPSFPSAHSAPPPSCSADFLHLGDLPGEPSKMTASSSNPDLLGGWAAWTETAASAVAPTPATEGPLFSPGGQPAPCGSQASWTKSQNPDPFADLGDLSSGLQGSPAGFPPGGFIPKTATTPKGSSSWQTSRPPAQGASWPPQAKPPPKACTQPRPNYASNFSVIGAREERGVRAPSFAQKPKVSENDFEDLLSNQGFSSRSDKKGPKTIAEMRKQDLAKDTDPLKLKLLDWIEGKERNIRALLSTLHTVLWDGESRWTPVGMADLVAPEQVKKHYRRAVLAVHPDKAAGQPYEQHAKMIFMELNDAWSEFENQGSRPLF

Assay [3] deals with Tyrosine-protein kinase Lck (Homo sapiens, UniProt P06239).
Assay [4] addresses Membrane-associated progesterone receptor component 1 (Homo sapiens, UniProt O00264).
Assay [5] deals with T2, cGMP-dependent protein kinase 1 (Homo sapiens, UniProt Q13976).
T2 sequence (Q13976 whole entry): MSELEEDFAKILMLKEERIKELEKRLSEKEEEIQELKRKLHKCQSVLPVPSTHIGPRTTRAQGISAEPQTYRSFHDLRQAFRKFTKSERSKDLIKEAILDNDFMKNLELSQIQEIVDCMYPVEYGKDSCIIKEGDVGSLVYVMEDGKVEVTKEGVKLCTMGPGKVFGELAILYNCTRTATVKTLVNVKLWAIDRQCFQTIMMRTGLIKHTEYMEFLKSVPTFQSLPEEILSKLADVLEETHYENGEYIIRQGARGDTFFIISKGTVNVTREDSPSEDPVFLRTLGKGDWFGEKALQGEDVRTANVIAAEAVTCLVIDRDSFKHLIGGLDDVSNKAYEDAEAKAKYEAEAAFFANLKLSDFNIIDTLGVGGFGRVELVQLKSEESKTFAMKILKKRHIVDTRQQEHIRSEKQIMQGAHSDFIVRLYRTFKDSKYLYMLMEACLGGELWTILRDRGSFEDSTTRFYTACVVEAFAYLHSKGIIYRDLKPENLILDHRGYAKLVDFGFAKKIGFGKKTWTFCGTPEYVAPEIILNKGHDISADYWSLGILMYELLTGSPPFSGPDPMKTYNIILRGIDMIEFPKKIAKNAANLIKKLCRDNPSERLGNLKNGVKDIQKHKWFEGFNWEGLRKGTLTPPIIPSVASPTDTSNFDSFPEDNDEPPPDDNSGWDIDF

Assay [6] concerns the target Serine/threonine-protein kinase 10 (Homo sapiens, UniProt O94804).
For assay [7], the target named is T3, ATP-dependent 6-phosphofructokinase, platelet type (Homo sapiens, UniProt Q01813).
T3 sequence (Q01813 whole entry): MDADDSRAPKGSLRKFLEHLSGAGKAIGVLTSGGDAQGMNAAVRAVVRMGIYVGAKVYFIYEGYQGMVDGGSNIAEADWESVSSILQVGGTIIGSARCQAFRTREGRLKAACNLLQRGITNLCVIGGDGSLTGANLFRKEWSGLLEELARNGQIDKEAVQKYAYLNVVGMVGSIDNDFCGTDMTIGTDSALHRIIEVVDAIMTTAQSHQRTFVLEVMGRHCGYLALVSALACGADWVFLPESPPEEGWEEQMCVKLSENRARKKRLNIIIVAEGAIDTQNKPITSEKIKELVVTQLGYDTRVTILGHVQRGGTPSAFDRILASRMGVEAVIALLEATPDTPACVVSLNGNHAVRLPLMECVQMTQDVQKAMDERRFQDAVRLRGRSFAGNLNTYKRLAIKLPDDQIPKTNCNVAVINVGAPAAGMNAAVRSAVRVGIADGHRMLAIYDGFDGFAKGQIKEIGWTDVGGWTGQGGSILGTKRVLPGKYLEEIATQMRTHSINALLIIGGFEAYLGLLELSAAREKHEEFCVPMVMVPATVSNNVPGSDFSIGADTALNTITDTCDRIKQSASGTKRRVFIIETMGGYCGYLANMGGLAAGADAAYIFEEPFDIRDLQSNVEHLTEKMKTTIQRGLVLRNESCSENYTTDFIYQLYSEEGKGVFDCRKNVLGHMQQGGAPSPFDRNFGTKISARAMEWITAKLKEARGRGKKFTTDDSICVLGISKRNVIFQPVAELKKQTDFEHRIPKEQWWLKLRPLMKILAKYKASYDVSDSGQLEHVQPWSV
Note: in the data inactive means no Kd found up to 30 µM.

Sequence of Cyclin-dependent kinase 5 (Q00535 whole entry): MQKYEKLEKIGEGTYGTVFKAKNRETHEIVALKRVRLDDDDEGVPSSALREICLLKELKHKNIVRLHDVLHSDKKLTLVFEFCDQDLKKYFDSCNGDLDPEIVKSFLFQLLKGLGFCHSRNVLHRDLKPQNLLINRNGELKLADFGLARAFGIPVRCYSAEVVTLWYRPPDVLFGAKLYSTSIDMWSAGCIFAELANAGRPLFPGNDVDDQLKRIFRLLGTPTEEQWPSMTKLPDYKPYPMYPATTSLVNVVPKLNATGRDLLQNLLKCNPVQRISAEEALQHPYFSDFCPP
Sequence of Serine/threonine-protein kinase 10 (O94804 whole entry): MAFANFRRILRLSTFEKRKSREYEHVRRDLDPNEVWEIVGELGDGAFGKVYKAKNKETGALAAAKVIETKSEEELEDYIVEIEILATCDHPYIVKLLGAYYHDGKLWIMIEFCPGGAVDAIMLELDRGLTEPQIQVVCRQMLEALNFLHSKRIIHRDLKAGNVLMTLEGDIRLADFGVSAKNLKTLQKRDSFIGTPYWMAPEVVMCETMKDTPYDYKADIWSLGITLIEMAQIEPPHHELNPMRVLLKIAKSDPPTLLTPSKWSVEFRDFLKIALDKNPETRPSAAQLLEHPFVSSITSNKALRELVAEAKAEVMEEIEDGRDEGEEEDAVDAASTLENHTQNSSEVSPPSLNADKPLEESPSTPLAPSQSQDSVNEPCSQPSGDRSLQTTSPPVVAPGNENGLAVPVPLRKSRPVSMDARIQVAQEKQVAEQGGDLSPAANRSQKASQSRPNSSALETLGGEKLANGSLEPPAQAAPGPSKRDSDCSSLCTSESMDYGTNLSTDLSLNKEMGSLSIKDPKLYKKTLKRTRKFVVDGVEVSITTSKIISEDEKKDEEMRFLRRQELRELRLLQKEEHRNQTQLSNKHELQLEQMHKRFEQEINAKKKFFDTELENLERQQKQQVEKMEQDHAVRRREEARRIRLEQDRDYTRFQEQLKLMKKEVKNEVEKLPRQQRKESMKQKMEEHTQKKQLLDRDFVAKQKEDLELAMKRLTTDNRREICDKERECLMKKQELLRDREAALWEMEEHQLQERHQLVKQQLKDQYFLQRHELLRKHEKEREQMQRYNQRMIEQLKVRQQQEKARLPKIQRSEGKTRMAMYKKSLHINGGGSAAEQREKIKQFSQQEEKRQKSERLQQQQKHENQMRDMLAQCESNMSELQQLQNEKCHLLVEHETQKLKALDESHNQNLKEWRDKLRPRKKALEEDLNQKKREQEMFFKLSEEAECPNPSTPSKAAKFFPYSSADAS
Sequence of Membrane-associated progesterone receptor component 1 (O00264 whole entry): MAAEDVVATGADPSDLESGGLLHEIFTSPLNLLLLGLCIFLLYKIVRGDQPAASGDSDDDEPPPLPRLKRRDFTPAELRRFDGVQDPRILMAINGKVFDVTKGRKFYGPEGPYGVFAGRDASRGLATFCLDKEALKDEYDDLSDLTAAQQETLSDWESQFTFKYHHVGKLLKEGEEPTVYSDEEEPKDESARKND
Sequence of Tyrosine-protein kinase Lck (P06239 whole entry): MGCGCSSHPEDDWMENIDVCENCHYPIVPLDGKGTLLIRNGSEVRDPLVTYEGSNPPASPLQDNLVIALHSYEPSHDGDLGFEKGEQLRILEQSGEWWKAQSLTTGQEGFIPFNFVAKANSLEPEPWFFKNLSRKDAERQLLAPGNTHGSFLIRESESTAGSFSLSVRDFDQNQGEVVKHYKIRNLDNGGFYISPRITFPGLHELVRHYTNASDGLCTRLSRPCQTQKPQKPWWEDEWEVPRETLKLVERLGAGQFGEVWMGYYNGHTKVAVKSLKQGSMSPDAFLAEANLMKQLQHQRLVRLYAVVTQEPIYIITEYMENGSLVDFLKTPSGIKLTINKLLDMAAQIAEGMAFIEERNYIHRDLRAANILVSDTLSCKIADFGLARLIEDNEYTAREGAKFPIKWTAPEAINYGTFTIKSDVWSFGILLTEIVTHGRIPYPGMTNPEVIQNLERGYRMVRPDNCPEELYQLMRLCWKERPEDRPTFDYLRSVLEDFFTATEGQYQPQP

With `C[C@@H](Oc1cc(C(=O)Nc2ccc(C(=O)N3CCN(C)CC3)cc2)nnc1N)c1c(Cl)ccc(F)c1Cl`, the Kd in assay [1], in assay [2], in assay [3], in assay [4], in assay [5] and in assay [6] was > 30 µM (inactive) throughout.
With `C[C@H]1CNCCCN1S(=O)(=O)c1cccc2cncc(F)c12`, the Kd in assay [1], in assay [2], in assay [3], in assay [7], in assay [4] and in assay [5] was > 30 µM (inactive) each time. Further, in assay [6], the Kd is > 30 µM (inactive).
As to `CCNC(=O)C#Cc1ccc2c(c1)NC(=O)/C2=C(\Nc1ccc(CN(C)C)cc1)c1ccccc1`, the Kd in assay [1] was > 30 µM (inactive); in assay [2], > 30 µM (inactive); in assay [3] it was 0.115 µM (active); in assay [7] it was > 30 µM (inactive); in assay [4] it was > 30 µM (inactive); in assay [5], > 30 µM (inactive). Further, in assay [6], the Kd is 0.136 µM (active).
With `COc1cc(Nc2ncc3c(n2)-c2ccc(Cl)cc2C(c2c(F)cccc2OC)=NC3)ccc1C(=O)O` [ALISERTIB], the Kd in assay [2], in assay [3], in assay [7], in assay [4] and in assay [6] was > 30 µM (inactive) throughout.
On to `CNC(=O)c1ccccc1Sc1ccc2c(/C=C/c3ccccn3)n[nH]c2c1` [AXITINIB], for which, in assay [7], the Kd is > 30 µM (inactive).
Regarding `COc1cc([C@@H]2c3cc4c(cc3[C@H](O)[C@H]3COC(=O)[C@@H]23)OCO4)cc(OC)c1OC` [AXL-1717], the Kd in assay [1], in assay [2], in assay [3], in assay [7], in assay [4] and in assay [5] was > 30 µM (inactive) each time. In addition, in assay [6], the Kd is > 30 µM (inactive).
On to `Cn1cc(C2=C(c3cn(C4CCN(Cc5ccccn5)CC4)c4ccccc34)C(=O)NC2=O)c2ccccc21` [ENZASTAURIN], for which, in assay [7], the Kd is > 30 µM (inactive).
Turning to `C[C@@H](Oc1cc(-n2cnc3ccc(CN4CCN(C)CC4)cc32)sc1C(N)=O)c1ccccc1C(F)(F)F` [GSK-461364], the Kd in assay [7] and in assay [4] was > 30 µM (inactive) throughout.
Regarding `Cc1[nH]c(/C=C2\C(=O)Nc3ccccc32)c(C)c1CCC(=O)O` [ORANTINIB], the Kd was 2.09 µM (active) in assay [2], > 30 µM (inactive) in assay [7] and > 30 µM (inactive) in assay [4].
In the case of `NC(=O)c1c(OCc2c(F)cc(Br)cc2F)nsc1NC(=O)NCCCCN1CCCC1` [OSI-632], the Kd in assay [2] was > 30 µM (inactive); in assay [7], > 30 µM (inactive); in assay [4], > 30 µM (inactive); in assay [6] it was 0.515 µM (active).
As to `CC(=O)NCC(=O)N1[C@@H]2CC[C@H]1c1ccc(Nc3ncc(C(F)(F)F)c(NC4CCC4)n3)cc12` [PF-03814735], the Kd is 1.76 µM (active) in assay [2], > 30 µM (inactive) in assay [7], > 30 µM (inactive) in assay [4] and 0.309 µM (active) in assay [6].
`CNC(=O)c1cc(Oc2ccc(NC(=O)Nc3cc(C(C)(C)C)nn3-c3ccc4ncccc4c3)c(F)c2)ccn1` [REBASTINIB]: the Kd in assay [1] was 1.5 µM (active); in assay [2] it was > 30 µM (inactive); in assay [7], > 30 µM (inactive); in assay [5], > 30 µM (inactive).
On to `O=C(NOCCO)c1cc(CN2OCCCC2=O)c(F)c(F)c1Nc1ccc(I)cc1F` [RO-4987655], for which the Kd in assay [7] and in assay [4] was > 30 µM (inactive) throughout.
Consider `N#CC[C@H](C1CCCC1)n1cc(-c2ncnc3[nH]ccc23)cn1` [RUXOLITINIB], for which the Kd in assay [7] is > 30 µM (inactive).
For the compound `C[C@@H](N)c1ccc(C(=O)Nc2ccnc3[nH]ccc23)cc1` [Y-39983], the Kd in assay [1], in assay [2], in assay [3], in assay [7], in assay [5] and in assay [6] was > 30 µM (inactive) in each case.

Broadly, the Kd is the free concentration of one partner at which half of the binding sites on the other are occupied at equilibrium, for simple one-to-one binding.
